What was measured:
Format in all cases: in vivo
[1] = tested on: cocklebur (Xanthium strumarium); test: Test C; parameters: key: 0 was no effect; 100 was complete control; conditions: PREEMERGENCE
[2] = tested on: wild poinsettia (Euphorbia heterophylla); test: Test C; parameters: key: 0 was no effect; 100 was complete control; conditions: PREEMERGENCE
[3] = tested on: eastern black nightshade (Solanum ptycanthum); test: Test C; conditions: PREEMERGENCE
[4] = tested on: ivyleaf morningglory (Ipomoea hederacea); test: Test C; conditions: PREEMERGENCE
[5] = tested on: hairy beggarticks (Bidens pilosa); test: Test C; parameters: key: 0 was no effect; 100 was complete control; conditions: PREEMERGENCE
[6] = tested on: large crabgrass (Digitaria sanguinalis); test: Test C; parameters: key: 0 was no effect; 100 was complete control; conditions: PREEMERGENCE
[7] = tested on: giant foxtail (Setaria faberii); test: Test C; parameters: key: 0 was no effect; 100 was complete control; conditions: PREEMERGENCE
[8] = tested on: barnyardgrass (Echinochloa crus-galli); test: Test C; parameters: key: 0 was no effect; 100 was complete control; conditions: PREEMERGENCE
[9] = tested on: sandbur (Cenchrus echinatus); test: Test E pre-/postemergence/post directed
Method in brief: (§1)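 Greenhouse pots; compound in non-phytotoxic solvent with surfactant, sprayed preemergence within one day of planting, postemergence at two to four leaf stage (three to twenty cm), or post directed to plant base and soil. Visual injury rated 13 to 21 days after application, 0 (none) to 100 (complete control).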

[10] = tested on: alexandergrass (Brachiaria plantaginea); test: Test E pre-/postemergence/post directed
Method in brief: as §1

[11] = tested on: itchgrass (Rottboellia exaltata); test: Test E pre-/postemergence/post directed
Method in brief: as §1

[12] = tested on: common ragweed (Ambrosia elatior); test: Test E pre-/postemergence/post directed
Method in brief: as §1

[13] = tested on: johnson grass (Sorghum halepense); test: Test E pre-/postemergence/post directed
Method in brief: as §1

[14] = tested on: bermudagrass (Cynodon dactylon); test: Test E pre-/postemergence/post directed; conditions: POSTEMERGENCE, Rate 250 g/ha
Method in brief: as §1

[15] = tested on: large crabgrass (Digitaria sanguinalis); test: Test E pre-/postemergence/post directed; conditions: POSTEMERGENCE, Rate 250 g/ha
Method in brief: as §1

[16] = tested on: surinam grass (Brachiaria decumbens); test: Test E pre-/postemergence/post directed
Method in brief: as §1

[17] = tested on: Spanishneedles (Bidens bipinnata); test: Test E pre-/postemergence/post directed
Method in brief: as §1

[18] = tested on: arrowleaf sida (Sida rhombifolia); test: Test C; parameters: key: 0 was no effect; 100 was complete control; conditions: PREEMERGENCE
[19] = tested on: velvetleaf (Abutilon theophrasti); test: Test C; parameters: key: 0 was no effect; 100 was complete control; conditions: PREEMERGENCE
[20] = tested on: redroot pigweed (Amaranthus retroflexus); test: Test C; parameters: key: 0 was no effect; 100 was complete control; conditions: PREEMERGENCE
[21] = tested on: cotton (Gossypium hirsutum); test: Test C; parameters: key: 0 was no effect; 100 was complete control; conditions: PREEMERGENCE

Cc1cnc(-c2ccc(C(F)(F)F)cc2)nc1Cc1cccc(C(F)(F)F)c1 [Example 1, 5-methyl-2-[4-(trifluoromethyl)phenyl]-4-[[3-(trifluoromethyl)phenyl]methyl]pyrimidine]
90: Plant response rating, E. blacknightsh ([3]; Rate 35 g/ha) | Plant response rating, E. blacknightsh ([3]; Rate 70 g/ha) | Plant response rating, Alexandergrass ([10]; POSTEMERGENCE, Rate 250 g/ha) | Plant response rating, Alexandergrass ([10]; PREEMERGENCE, Rate 125 g/ha) | Plant response rating, Com. ragweed ([12]; PREEMERGENCE, Rate 32 g/ha) | Plant response rating, Johnsongrass ([13]; POSTEMERGENCE, Rate 250 g/ha) | Plant response rating, Johnsongrass ([13]; PREEMERGENCE, Rate 125 g/ha) | Plant response rating, Spanishneedles ([17]; PREEMERGENCE, Rate 125 g/ha)
5: Plant response rating, Johnsongrass ([13]; PREEMERGENCE, Rate 32 g/ha)
30: Plant response rating, Bermudagrass [14] | Plant response rating, Surinam grass ([16]; POSTEMERGENCE, Rate 250 g/ha) | Plant response rating, Cotton ([21]; Rate 35 g/ha)
10: Plant response rating, Wild poinsettia ([2]; Rate 70 g/ha) | Plant response rating, Sandbur ([9]; POSTEMERGENCE, Rate 250 g/ha) | Plant response rating, Alexandergrass ([10]; PREEMERGENCE, Rate 32 g/ha) | Plant response rating, Spanishneedles ([17]; POSTEMERGENCE, Rate 250 g/ha)
80: Plant response rating, Spanishneedles ([17]; PREEMERGENCE, Rate 64 g/ha)
95: Plant response rating, E. blacknightsh ([3]; Rate 140 g/ha) | Plant response rating, Sandbur ([9]; PREEMERGENCE, Rate 125 g/ha) | Plant response rating, Itchgrass ([11]; PREEMERGENCE, Rate 250 g/ha) | Plant response rating, Arrowleaf sida ([18]; Rate 70 g/ha)
75: Plant response rating, Barnyardgrass ([8]; Rate 70 g/ha) | Plant response rating, Alexandergrass ([10]; PREEMERGENCE, Rate 64 g/ha) | Plant response rating, Velvetleaf ([19]; Rate 70 g/ha)
50: Plant response rating, Wild poinsettia ([2]; Rate 140 g/ha) | Plant response rating, Itchgrass ([11]; PREEMERGENCE, Rate 125 g/ha)
40: Plant response rating, Johnsongrass ([13]; PREEMERGENCE, Rate 64 g/ha) | Plant response rating, Spanishneedles ([17]; PREEMERGENCE, Rate 32 g/ha)
100: Plant response rating, H. beggarticks ([5]; Rate 70 g/ha) | Plant response rating, H. beggarticks ([5]; Rate 140 g/ha) | Plant response rating, Large crabgrass ([6]; Rate 35 g/ha) | Plant response rating, Large crabgrass ([6]; Rate 70 g/ha) | Plant response rating, Large crabgrass ([6]; Rate 140 g/ha) | Plant response rating, Giant foxtail ([7]; Rate 35 g/ha) | Plant response rating, Giant foxtail ([7]; Rate 70 g/ha) | Plant response rating, Giant foxtail ([7]; Rate 140 g/ha) | Plant response rating, Barnyardgrass ([8]; Rate 140 g/ha) | Plant response rating, Arrowleaf sida ([18]; Rate 140 g/ha) | Plant response rating, Velvetleaf ([19]; Rate 140 g/ha) | Plant response rating, Redroot pigweed ([20]; Rate 35 g/ha) | Plant response rating, Redroot pigweed ([20]; Rate 70 g/ha) | Plant response rating, Redroot pigweed ([20]; Rate 140 g/ha) | Plant response rating, Cotton ([21]; Rate 140 g/ha)
0: Plant response rating, Cocklebur ([1]; Rate 35 g/ha) | Plant response rating, Cocklebur ([1]; Rate 70 g/ha) | Plant response rating, Cocklebur ([1]; Rate 140 g/ha) | Plant response rating, Wild poinsettia ([2]; Rate 35 g/ha)
98: Plant response rating, Surinam grass ([16]; PREEMERGENCE, Rate 125 g/ha)
20: Plant response rating, I. morningglory ([4]; Rate 140 g/ha) | Plant response rating, H. beggarticks ([5]; Rate 35 g/ha) | Plant response rating, Barnyardgrass ([8]; Rate 35 g/ha) | Plant response rating, Sandbur ([9]; PREEMERGENCE, Rate 32 g/ha) | Plant response rating, Itchgrass ([11]; PREEMERGENCE, Rate 32 g/ha) | Plant response rating, Itchgrass ([11]; PREEMERGENCE, Rate 64 g/ha) | Plant response rating, Velvetleaf ([19]; Rate 35 g/ha)
70: Plant response rating, Com. ragweed ([12]; POSTEMERGENCE, Rate 250 g/ha)
15: Plant response rating, I. morningglory ([4]; Rate 35 g/ha) | Plant response rating, I. morningglory ([4]; Rate 70 g/ha)
85: Plant response rating, Itchgrass ([11]; POSTEMERGENCE, Rate 250 g/ha) | Plant response rating, Large crabgrass [15] | Plant response rating, Arrowleaf sida ([18]; Rate 35 g/ha)
35: Plant response rating, Surinam grass ([16]; PREEMERGENCE, Rate 64 g/ha)
60: Plant response rating, Cotton ([21]; Rate 70 g/ha)
65: Plant response rating, Sandbur ([9]; PREEMERGENCE, Rate 64 g/ha) | Plant response rating, Surinam grass ([16]; PREEMERGENCE, Rate 32 g/ha)
